Reference: the supplement of paper PMC13380429

Legend:
A549-ACE2 [1] = experiment: drug-induced phospholipidosis relative to tamoxifen; higher = more phospholipidosis
[2] = test system: A549-ACE2 infected with SARS-CoV-2; experiment: cell count relative to DMSO; higher = less toxic; settings: 24 h
HepG2 [3] = experiment: drug sensitivity score (DSS) for viability; higher = more toxic; extreme values may be limits of the assay; settings: 72 h
Vero E6 [4] = experiment: as above; settings: 72 h
Caco-2 [5] = experiment: as above; settings: 72 h
U2OS [6] = experiment: as above; settings: 72 h
Calu-3 [7] = experiment: as above; settings: 72 h
[8] = test system: A549-ACE2 infected with SARS-CoV-2; experiment: morphology score (similarity to uninfected cells); higher = more like uninfected cells; settings: 24 h
HepG2 [9] = experiment: relative viability EC50 (midpoint between 100% and the lowest measured viability); higher = less toxic; settings: 72 h
Vero E6 [10] = experiment: as above; settings: 72 h
Caco-2 [11] = experiment: as above; settings: 72 h
U2OS [12] = experiment: as above; settings: 72 h
Calu-3 [13] = experiment: as above; settings: 72 h
HepG2 [14] = experiment: cell viability relative to DMSO; higher = less toxic; settings: 72 h
Vero E6 [15] = experiment: as above; settings: 72 h
Caco-2 [16] = experiment: as above; settings: 72 h
U2OS [17] = experiment: as above; settings: 72 h
Calu-3 [18] = experiment: as above; settings: 72 h
[19] = test system: A549-ACE2 infected with SARS-CoV-2; experiment: SARS-CoV-2 infection rate relative to DMSO; higher = more infection; settings: 24 h
A549-ACE2 [20] = experiment: phospholipidosis EC50; higher = less potent phospholipidosis inducer

COc1cc2c(NC3CCN(C(C)C)CC3)nc(N3CCC(F)(F)CC3)nc2cc1OCCCN1CCCC1 [UNC0642]
drug-induced phospholipidosis (A549-ACE2 [1]; 0.3 µM, 24 h): 4.47% | drug-induced phospholipidosis (A549-ACE2 [1]; 0.3 µM, 48 h): 8.91% | drug-induced phospholipidosis (A549-ACE2 [1]; 0.3 µM, 72 h): 9.24% | drug-induced phospholipidosis (A549-ACE2 [1]; 0.833333 µM, 24 h): 9.42% | drug-induced phospholipidosis (A549-ACE2 [1]; 0.833333 µM, 48 h): 12.1% | drug-induced phospholipidosis (A549-ACE2 [1]; 0.833333 µM, 72 h): 11% | drug-induced phospholipidosis (A549-ACE2 [1]; 3.33333 µM, 24 h): 29.6% | drug-induced phospholipidosis (A549-ACE2 [1]; 3.33333 µM, 48 h): 34% | drug-induced phospholipidosis (A549-ACE2 [1]; 3.33333 µM, 72 h): 36.7% | drug-induced phospholipidosis (A549-ACE2 [1]; 6.66667 µM, 24 h): 35.7% | drug-induced phospholipidosis (A549-ACE2 [1]; 6.66667 µM, 48 h): 48.6% | drug-induced phospholipidosis (A549-ACE2 [1]; 6.66667 µM, 72 h): 55.6% | drug-induced phospholipidosis (A549-ACE2 [1]; 10 µM, 24 h): 32.6% | drug-induced phospholipidosis (A549-ACE2 [1]; 10 µM, 48 h): 51.8% | drug-induced phospholipidosis (A549-ACE2 [1]; 10 µM, 72 h): 62.4% | drug-induced phospholipidosis (A549-ACE2 [1]; 30 µM, 24 h): 5.01% | drug-induced phospholipidosis (A549-ACE2 [1]; 30 µM, 48 h): 0.44% | cell count ([2]; 0.3 µM): 94% | cell count ([2]; 3 µM): 122% | cell count ([2]; 10 µM): 123% | cell count ([2]; 30 µM): 89% | drug sensitivity score (HepG2 [3]): 4 | drug sensitivity score (Vero E6 [4]): 0 | drug sensitivity score (Caco-2 [5]): 0 | drug sensitivity score (U2OS [6]): 0.7 | drug sensitivity score (Calu-3 [7]): 4.2 | morphology score ([8]; 0.3 µM): 0.09 | morphology score ([8]; 3 µM): 0.76 | morphology score ([8]; 10 µM): 0.09 | morphology score ([8]; 30 µM): -0.23 | relative viability EC50 (HepG2 [9]): 3.34 µM | relative viability EC50 (Vero E6 [10]): > 10 µM | relative viability EC50 (Caco-2 [11]): > 10 µM | relative viability EC50 (U2OS [12]): > 10 µM | relative viability EC50 (Calu-3 [13]): 2.78 µM | cell viability (HepG2 [14]; 1 nM): 95.1% | cell viability (HepG2 [14]; 10 nM): 103% | cell viability (HepG2 [14]; 100 nM): 106% | cell viability (HepG2 [14]; 1000 nM): 102% | cell viability (HepG2 [14]; 10000 nM): 24.8% | cell viability (Vero E6 [15]; 1 nM): 96.6% | cell viability (Vero E6 [15]; 10 nM): 102% | cell viability (Vero E6 [15]; 100 nM): 91.6% | cell viability (Vero E6 [15]; 1000 nM): 108% | cell viability (Vero E6 [15]; 10000 nM): 105% | cell viability (Caco-2 [16]; 1 nM): 101% | cell viability (Caco-2 [16]; 10 nM): 92.5% | cell viability (Caco-2 [16]; 100 nM): 104% | cell viability (Caco-2 [16]; 1000 nM): 106% | cell viability (Caco-2 [16]; 10000 nM): 99.7% | cell viability (U2OS [17]; 1 nM): 98.6% | cell viability (U2OS [17]; 10 nM): 95.4% | cell viability (U2OS [17]; 100 nM): 100% | cell viability (U2OS [17]; 1000 nM): 98.6% | cell viability (U2OS [17]; 10000 nM): 81.1% | cell viability (Calu-3 [18]; 1 nM): 93.9% | cell viability (Calu-3 [18]; 10 nM): 95.1% | cell viability (Calu-3 [18]; 100 nM): 95.3% | cell viability (Calu-3 [18]; 1000 nM): 96.6% | cell viability (Calu-3 [18]; 10000 nM): 32.9% | SARS-CoV-2 infection rate ([19]; 0.3 µM): 87% | SARS-CoV-2 infection rate ([19]; 3 µM): 21% | SARS-CoV-2 infection rate ([19]; 10 µM): 13% | SARS-CoV-2 infection rate ([19]; 30 µM): 35% | phospholipidosis EC50 (A549-ACE2 [20]; 48 h): 1.19 µM | phospholipidosis EC50 (A549-ACE2 [20]; 72 h): 3.66 µM
